# Measurements reported in patent EP0101944A1, “Immunomodulators containing as the active ingredient alpha-benzyl malic acid” (MICROBIAL CHEMISTRY RESEARCH FOUNDATION, priority 1982, dated 1984).
# How the values were obtained:
# cell-mediated immunity [1] = test: Delayed-type hypersensitivity (D.T.H.) to sheep red blood cells, foot pad swelling in normal mice; format: in vivo, CDF1 mice; conditions: single dose; for Thickness of the foot pad: SRBC-sensitized female CDF1 mice, measured 24 h after challenge, control 8.6 ± 1.29; for % on the control's value: foot pad thickness, control = 100 %
# Experimental: The action of &-benzyl malic acid on cell-mediated immunity was investigated using as its index the degree of delayed-type hypersensitivity (hereinafter referred to as D.T.H.) obtained by inoculating the foot pads of mice with sheep red blood cells (hereinafter referred to as SRBC) used as the antigen (Reference: J.Exp.Med. 139, 1529-1539, 1974).
# A suspension of […] SRBCs in 0.05 ml of physiological saline solution was inoculated subcutaneously to the foot pad of one of the hind legs of CDF1 mice (female, 8 weeks old). Simultaneously, an aqueous solution containing 5, 0.5, 0.05 or 0.005 mg/kg of α-benzyl malic acid was administered intraperitoneally in a single dose. Four days after administration, a suspension of 10^8 SRBCs in 0.05 ml of physiological saline solution was subcutaneously administered to the foot pad of the other hind leg to induce secondary immune response. Twenty-four hours later, swelling on the foot pad (increased thickness of the foot pad) was measured with a calipers. The thickness of the foot pad in control animals, which had been sensitized with SRBCs and intraperitoneally administered physiological saline solution without having received the test compound, was evaluated to be 100 %. The thickness of the foot pad in the test animals that had been treated in the aforementioned way was compared with that in the control animals, thereby judging the cell-mediated immunity potentiating effect of the test compound.
# cell-mediated immunity [2] = test: Picryl chloride ear swelling in cancer-inflicted (Ascites Sarcoma 180) mice; format: in vivo, CDF1 mice; conditions: for Increase in ear thickness: Sarcoma 180-bearing female CDF1 mice, picryl chloride, control 4.11 ± 1.11; for Rate to the control value: increase in ear thickness T/C, control = 100.0
# Excerpt: (Effect on cell-mediated immunity in cancer-inflicted mice; picryl chloride was used as the antigen)
# 10^6 cells of Ascites Sarcoma 180 were intraperitoneally transplanted to groups of 12-week-old female CDF1 mice (6 mice/group). The day of transplantation was designated as Day 0. On Day 1, a 6 % solution of picryl chloride in ethanol was applied to a shaven skin (25 mm x 15 mm) of the abdomen with the use of a cut absorbent cotton (20 mm x 20 mm x 2 mm) impregnated with the solution to thereby sensitize the mice. On Day 8, both ears were measured for thickness with a dial gauge, to determine the baseline value (a).
# Then, both ears were sensitized with a 20 mm x 4 mm x 1 mm cut absorbent cotton impregnated with a 1 % solution of picryl chloride in olive oil. On Day 9, both swollen ears were measured for their thickness with a dial gauge to obtain a value (b). The baseline value (a) was subtracted from the value (b) to determine the increase in ear thickness (b - a) for the control group (C).
# On the other hand, 5.0, 0.5, 0.05 or 0.005 mg/kg of the test compound dissolved in physiological saline solution was orally administered once daily for 6 consecutive days between the day and 8 days after inoculation of Sarcoma 180. The mice were sensitized with picryl chloride in the same way as in the control group, and the thickness of the ears was similarly measured to determine the increase in ear thickness (b' - a') for the treatment group (T).
# The rate of increase in ear thickness for the treatment group to that for the control group was calculated from the following equation: [formula] to determine the cell-mediated immunity modulating activity of the present compound.
# [3] = Acute toxicity test in mice; format: in vivo; conditions: i.v. dose of 500 mg/kg
# Excerpt: The present compound is therefore believed to be a safe substance.
# [4] = 0.005 mg/kg orally once daily for 6 consecutive days
# [5] = 0.05 mg/kg orally once daily for 6 consecutive days
# [6] = 0.5 mg/kg orally once daily for 6 consecutive days
# [7] = 5.0 mg/kg orally once daily for 6 consecutive days
structure (smiles),measurement,setting,value
"CC(C)C[C@H](NC(=O)[C@@H](O)[C@H](N)Cc1ccccc1)C(=O)O [Bestatin, [(2S,3R)-5-amino-2-hydroxy-4-phenyl-(S)-leucine], reference compound]",Thickness of the foot pad,cell-mediated immunity [1]; 0.5 mg/kg intraperitoneally,12.6 ± 1.12 x 0.1 mm
same,% on the control's value,cell-mediated immunity [1]; 0.5 mg/kg intraperitoneally,147%
O=C(O)CC(O)(Cc1ccccc1)C(=O)O (stereo not drawn) [α-benzyl malic acid],Thickness of the foot pad,cell-mediated immunity [1]; 0.005 mg/kg intraperitoneally,11.8 ± 1.15 x 0.1 mm
same,% on the control's value,cell-mediated immunity [1]; 0.005 mg/kg intraperitoneally,137%
same,Thickness of the foot pad,cell-mediated immunity [1]; 0.05 mg/kg intraperitoneally,13.4 ± 1.61 x 0.1 mm
same,% on the control's value,cell-mediated immunity [1]; 0.05 mg/kg intraperitoneally,156%
same,Thickness of the foot pad,cell-mediated immunity [1]; 0.5 mg/kg intraperitoneally,14.4 ± 1.52 x 0.1 mm
same,% on the control's value,cell-mediated immunity [1]; 0.5 mg/kg intraperitoneally,167%
same,Thickness of the foot pad,cell-mediated immunity [1]; 5 mg/kg intraperitoneally,12.8 ± 1.42 x 0.1 mm
same,% on the control's value,cell-mediated immunity [1]; 5 mg/kg intraperitoneally,149%
same,Increase in ear thickness,cell-mediated immunity [2]; [4],5.18 ± 0.67 x 0.01 mm
same,Rate to the control value,cell-mediated immunity [2]; [4],126.0%
same,Increase in ear thickness,cell-mediated immunity [2]; [5],5.29 ± 0.33 x 0.01 mm
same,Increase in ear thickness,"cell-mediated immunity [2]; 0.05 mg/kg orally once daily for 6 consecutive days, listed as the present compound",5.29 + 0.33 x 0.01 mm
same,Rate to the control value,cell-mediated immunity [2]; [5],128.7%
same,Increase in ear thickness,cell-mediated immunity [2]; [6],5.08 ± 0.56 x 0.01 mm
same,Rate to the control value,cell-mediated immunity [2]; [6],123.6%
same,Increase in ear thickness,cell-mediated immunity [2]; [7],4.71 ± 0.95 x 0.01 mm
same,Rate to the control value,cell-mediated immunity [2]; [7],114.6%
same,deaths in acute toxicity tests,[3],no deaths
